These results are taken from patent US20240226227A9, “BONE DISEASE TREATMENT” (The University of Birmingham, priority 2019, published 2024).

Assay [1] concerns murine osteoblast cell line MC3T3. In words: Alizarin red mineralization assay, MC3T3 osteoblast cell line. The class given is cell-based, mouse. As to conditions: MC3T3 cells, 10 ng/ml PEPITEM in differentiation media, up to 21 days, vs untreated cells. How it is done:
The spontaneously immortalised murine MC3T3-E1 cell line (ATCC, England, UK, CRL-2593) was brought up from liquid nitrogen and cultured in basal media made up of: αMEM media (Sigma-Aldrich™, St. Louis, MO, USA, M8042) supplemented with 2 mM L-Glutamine, 100 U/ml Penicillin and 100 μg/ml Streptomycin (all from Sigma-Aldrich™, G1146) and fetal bovine serum [(FBS) Biosera™, East Sussex, UK, FB1001]. […] Mineralisation was assessed using an Alizarin red staining quantification assay and ALP activity.
(§1) Osteoblasts were cultured in mineralization differentiation media in the presence or absence of PEPITEM (10 ng/ml) over a 21-day period, dependent on cell source. Mineralization was assessed by quantifying the amount of alizarin red (nM) or the level of alkaline phosphate activity (absorbance at 405 nm) per condition.
(§2) Alizarin red analysis was performed following the manufacturer's instructions (Caltag+Medsystems™, Buckingham, UK, SC8678). […] Alizarin red was quantified using ImageJ™ (NIH) by removing backing, converting to a binary image and measuring area fraction stained. […]

Assay [2] relates to primary murine osteoblast cells. The assay is described as follows: Alizarin red mineralization assay, primary murine osteoblasts. The class given is cell-based, mouse. The settings on record: 10 ng/ml PEPITEM, vs untreated cells, paired t-test. How it is done:
Day 3-5 WT mouse pups were culled via decapitation and heads were washed briefly in 70% ethanol and kept hydrated in αMEM media supplemented with 2 mM L-Glutamine, 100 U/ml Penicillin and 100 μg/ml Streptomycin. Skin was removed from around calvaria using forceps, and the calvaria was dissected out and cleaned of any contaminating tissue. Calvaria were added to αMEM media supplemented with 1 mg/ml of collagenase d (Roche™, Basel, Switzerland, COLLD-RO). Tubes were then agitated at 37° C. for 10 minutes and the media discarded. αMEM media supplemented with 1 mg/ml of collagenase d was again added to calvaria and shaken at 37° C. for 30 minutes. […] Cells on ice were then spun down at 300 g for 4 minutes, resuspended in 1 ml of Basal media and counted using a haemocytometer. […]
as §1, §2

Assay [3] relates to primary human osteoblasts. In words: Alkaline phosphatase activity (mineralization), primary human osteoblasts. The class given is cell-based. The settings on record: 10 ng/ml PEPITEM, vs untreated cells, paired t-test. How it is done: Human osteoarthritis subchondral joint tissue was obtained at the time of total knee and hip joint replacement operations from the Royal Orthopaedic Hospital (Birmingham). To isolate primary osteoblasts, cartilage was removed from the femoral condyles and tibial plateaus and cut into 2 mm^2 pieces. Samples were kept in media and cleaned of fat. Media contains DMEM (Sigma™, D6546), FCS (10%), GPS (1%), Non-essential amino acid (1%; Sigma™, M7145), β-glycerophosphate (2 mM; Sigma™—G9422) and L-Ascorbic acid (50 μg/ml; Sigma™, A5960). Bone chips were placed in T75 flasks in 10 ml of media, replacing media every 2-3 days. Main outgrowth occurs between 10-14 days, after which chips were placed in new flasks. […]
as §1
To measure alkaline phosphatase activity, cells were washed in PBS before being lysed in 100 μl of RIPA buffer (Thermo Fisher™, R0278) for 15 minutes on ice. […] The plate was wrapped in foil and left to run for 45 minutes at 37° C. in an incubated shaker (SciQuip™; Shropshire, UK) before being quantified using a Synergy HT plate reader (BioTek™) with absorbance set at 405 nm.

Assay [4] relates to long bones of wild-type mice. In words: Bone homeostasis in young healthy mice, microCT of long bones. The class given is in vivo, mouse. The settings on record: daily i.p. 300 μg for 14 days, vs PBS. How it is done:
(§3) All experiments were performed in accordance with UK Home Office regulations. For the animal studies, in each experiment wild-type (WT) animals were allocated at random to different experimental groups. Importantly, mice from the same litter were randomly distributed amongst the experimental groups, and where possible, they were equally distributed amongst experimental groups. Injections of peptide were carried out at the same time of day, with identical reagents when possible. The investigators were not blinded to allocation during experiments and outcome assessment. All samples analyzed were included in the study.
(§4) WT mice were housed in the Biomedical Services Unit at the University of Birmingham. Mice were used between 6 and 16 weeks of age. • 1. Homeostasis—Six-week-old male wild-type mice were treated with or without daily intraperitoneal (i.p.) injections of PEPITEM (300 μg) for 2 weeks. Mice were culled at 2 weeks to examine the effect of PEPITEM on bone homeostasis in young resting bones. • 2. Ovariectomy (model of age-related osteoporosis)—Twelve-week-old female wild-type mice were subjected to ovariectomy (OVX). Two weeks post-surgery, mice were treated with or without daily i.p. injections of PEPITEM (300 μg) for 2 weeks. Mice were culled at 2 weeks to obtain baseline bone loss measurements, or at 4 weeks to examine the effect of PEPITEM on OVX-induced bone loss. • 3. Analysis of murine bone parameters—Histomorphometry analysis was performed on long bones (femur; tibia) and/or spine to determine the effects of PEPITEM on the structural architecture of the tissue, cellular distribution and bone volume, including TRAP and Toluidine blue staining for osteoclasts and osteoblasts respectively. For information on these staining methods, see Das, P. et al., PNAS, 2018, 115(43), E10137-E10146 and Waddington, R. J. and Sloan, A. J. eds. Tissue Engineering and Regeneration in Dentistry: Current Strategies. West Sussex: John Wiley & Sons. Femurs were subjected to a 3-point bending test using a Bose 5500 (Bose) to determine the stiffness of the bones and the force required to fracture the bone. For more information on the 3-point bending test method, see Huesa, C. et al., Bone, 2011, 48(5), 1066-1074.

In assay [5] the test system is vertebra of wild-type mice. In words: Bone homeostasis in young healthy mice, microCT of vertebra. The class given is in vivo, mouse. The settings on record: daily i.p. 300 μg for 14 days, vs PBS. How it is done: as §3, §4
Assay [6] relates to long bones of wild-type mice. In words: 3-point bending test of long bones ex vivo after treatment of mice. The class given is in vivo, mouse. The settings on record: daily injections for 14 days, vs PBS. How it is done: as §4
The subject of assay [7] is ovariectomized wild-type mice. The assay is described as follows: Ovariectomy model of age-related osteoporosis, microCT of long bones. The class given is in vivo, mouse. As to conditions: OVX mice. How it is done: as §3, §4
For assay [8], the system named is osteoclasts and chondroclasts in tibia of wild-type mice. In words: TRAP staining of decalcified tibia sections, osteoclast and chondroclast counts. The class given is in vivo, mouse. As to conditions: daily injections for 14 days, vs PBS. How it is done:
WT mice were housed in the Biomedical Services Unit at the University of Birmingham. Mice were used between 6 and 16 weeks of age. • 1. Homeostasis—Six-week-old male wild-type mice were treated with or without daily intraperitoneal (i.p.) injections of PEPITEM (300 μg) for 2 weeks. Mice were culled at 2 weeks to examine the effect of PEPITEM on bone homeostasis in young resting bones. • 2. Ovariectomy (model of age-related osteoporosis)—Twelve-week-old female wild-type mice were subjected to ovariectomy (OVX). Two weeks post-surgery, mice were treated with or without daily i.p. injections of PEPITEM (300 μg) for 2 weeks. Mice were culled at 2 weeks to obtain baseline bone loss measurements, or at 4 weeks to examine the effect of PEPITEM on OVX-induced bone loss. • 3. […]
For analysis of whole hind limb sections, Zen Blue software (ZEISS, Cambridge, UK) was used to break whole leg scans into regions of 20 μm by 20 μm, which were saved as images (JPEG) and opened on ImageJ™ (National institute of health (NIH); Maryland, USA). […] Osteoclasts were counted per region using ImageJ™ count maxima tool, where maxima were defined according to noise tolerance to neighboring squares and given as total number of osteoclasts per section. […]

Where [9] appears, read: long bones, daily i.p. 300 μg for 2 weeks from 2 weeks post surgery, vs untreated.

Consider “PEPITEM (SVTEQGAELSNEER; listed as Homo sapiens)”, for which the “production of bone mineral (Alizarin Red staining)” value in assay [1] is recorded as “stimulates the production of bone mineral”. Also, in assay [2], the “osteoblast mineralization (Alizarin Red staining)” value is on record as “significantly increased”. Further, in assay [3], the “osteoblast mineralization (alkaline phosphatase activity)” value is “significantly increased”. In assay [4], the “bone volume to trabecular bone volume ratio (BV/TV)” value was “significantly increased”, the trabecular number result is reported as “significantly increased”, the trabecular separation entry is listed as “decreased” and the trabecular thickness result is “significantly increased”. In addition, in assay [5], the “bone volume to trabecular bone volume ratio (BV/TV)” value is “significantly increased”, the trabecular number entry was “significantly increased”, the trabecular separation entry is “decreased” and the trabecular thickness result is listed as “significantly increased”. Further, in assay [6], the bending force result is given as “significantly increased”, the fracture force result was “significantly increased” and the “stiffness of the bone” value was “significantly increased”. Also, the “additional bone loss after ovariectomy” value in assay [7] (4 weeks post surgery, compared to 2-week untreated (baseline) mice) is given as “prevented additional bone loss”. In assay [7] (setting [9]), the “bone volume to trabecular bone volume ratio (BV/TV)” value is reported as “significantly increased”, the trabecular number entry is “significantly increased”, the trabecular separation entry is listed as “decreased” and the trabecular thickness entry was “significantly increased”. Also, in assay [8], the “number of chondroclasts per μm” value was “reduced” and the “number of osteoclasts per mm^2 within the tibia” value was “significantly reduces”.
